In PubChem BioAssay (NCI):
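Results reflect a 48-hour exposure of cells in 96-well plates to compound at five concentrations. GI50: concentration for 50% inhibition of growth. At the TGI there is no net growth.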

Key:
Test in all cases: inhibition of tumour cell growth, NCI panel, 48 h
NCI-H226 lung = tested on: NCI-H226 lung
NCI-H23 lung = tested on: NCI-H23 lung
NCI-H460 lung = tested on: NCI-H460 lung
NCI-H522 lung = tested on: NCI-H522 lung
NCI/ADR-RES ovarian = tested on: NCI/ADR-RES ovarian
OVCAR-3 ovarian = tested on: OVCAR-3 ovarian
OVCAR-4 ovarian = tested on: OVCAR-4 ovarian
OVCAR-5 ovarian = tested on: OVCAR-5 ovarian
OVCAR-8 ovarian = tested on: OVCAR-8 ovarian
PC-3 prostate = tested on: PC-3 prostate
RPMI-8226 leukemia = tested on: RPMI-8226 leukemia
RXF 393 renal = tested on: RXF 393 renal
SF-268 CNS = tested on: SF-268 CNS
SF-539 CNS = tested on: SF-539 CNS
SK-MEL-2 melanoma = tested on: SK-MEL-2 melanoma
SK-MEL-28 melanoma = tested on: SK-MEL-28 melanoma
SK-MEL-5 melanoma = tested on: SK-MEL-5 melanoma
SK-OV-3 ovarian = tested on: SK-OV-3 ovarian
SN12C renal = tested on: SN12C renal
SNB-19 CNS = tested on: SNB-19 CNS
SNB-75 CNS = tested on: SNB-75 CNS
SR leukemia = tested on: SR leukemia
SW-620 colon = tested on: SW-620 colon
T-47D breast = tested on: T-47D breast
TK-10 renal = tested on: TK-10 renal
U251 CNS = tested on: U251 CNS
UACC-62 melanoma = tested on: UACC-62 melanoma
UO-31 renal = tested on: UO-31 renal

## COc1ccc(-c2cc(-c3ccc(Cl)cc3)c(C#N)c(=O)n2CCCCCC(=O)Nc2ccccc2N)cc1
NCI-H226 lung
  GI50: 4.58 µM
  TGI: 78.9 µM
NCI-H23 lung
  GI50: 6.04 µM
  TGI: 27.3 µM
NCI-H460 lung
  GI50: 3.42 µM
  TGI: 27.2 µM
NCI-H522 lung
  GI50: 4.43 µM
  TGI: > 100 µM
NCI/ADR-RES ovarian
  GI50: 3.99 µM
  TGI: > 100 µM
OVCAR-3 ovarian
  GI50: 5 µM
  TGI: 25.3 µM
OVCAR-4 ovarian
  GI50: 6.48 µM
  TGI: > 100 µM
OVCAR-5 ovarian
  GI50: 10.9 µM
  TGI: > 100 µM
OVCAR-8 ovarian
  GI50: 4.31 µM
  TGI: > 100 µM
PC-3 prostate
  GI50: 3.05 µM
  TGI: 31 µM
RPMI-8226 leukemia
  GI50: 1.43 µM
  TGI: 7.28 µM
RXF 393 renal
  GI50: 1.77 µM
  TGI: 5.68 µM
SF-268 CNS
  GI50: 14.9 µM
  TGI: > 100 µM
SF-539 CNS
  GI50: 9.29 µM
  TGI: > 100 µM
SK-MEL-2 melanoma
  GI50: 4.68 µM
  TGI: 33.1 µM
SK-MEL-28 melanoma
  GI50: 3.88 µM
  TGI: 97.8 µM
SK-MEL-5 melanoma
  GI50: 1.93 µM
  TGI: 3.73 µM
SK-OV-3 ovarian
  GI50: 5.36 µM
  TGI: 38.4 µM
SN12C renal
  GI50: 7.66 µM
  TGI: > 100 µM
SNB-19 CNS
  GI50: 23.1 µM
  TGI: > 100 µM
SNB-75 CNS
  GI50: 1.4 µM
  TGI: 5.83 µM
SR leukemia
  GI50: 2.02 µM
  TGI: > 100 µM
SW-620 colon
  GI50: 3.87 µM
  TGI: > 100 µM
T-47D breast
  GI50: 3.33 µM
  TGI: > 100 µM
TK-10 renal
  GI50: 28.5 µM
  TGI: > 100 µM
U251 CNS
  GI50: 6.19 µM
  TGI: > 100 µM
UACC-62 melanoma
  GI50: 2.4 µM
  TGI: 8.56 µM
UO-31 renal
  GI50: 3.96 µM
  TGI: > 100 µM
